Assays:
[1] = Ratio of drug concentration at steady state in human at 2 g, po QD after 24 hrs to IC50 for human BSEP overexpressed in Sf9 insect cells; assay type: ADME, organism-based; conditions: in vivo
[2] = target: Bile salt export pump (Homo sapiens, UniProt O95342); experiment: Inhibition of human BSEP overexpressed in Sf9 cell membrane vesicles assessed as uptake of [3H]-taurocholate in presence of ATP measured after 15 to 20 mins by membrane vesicle transport assay; assay type: ADME, cell-based
Sequence of Bile salt export pump (O95342 whole entry): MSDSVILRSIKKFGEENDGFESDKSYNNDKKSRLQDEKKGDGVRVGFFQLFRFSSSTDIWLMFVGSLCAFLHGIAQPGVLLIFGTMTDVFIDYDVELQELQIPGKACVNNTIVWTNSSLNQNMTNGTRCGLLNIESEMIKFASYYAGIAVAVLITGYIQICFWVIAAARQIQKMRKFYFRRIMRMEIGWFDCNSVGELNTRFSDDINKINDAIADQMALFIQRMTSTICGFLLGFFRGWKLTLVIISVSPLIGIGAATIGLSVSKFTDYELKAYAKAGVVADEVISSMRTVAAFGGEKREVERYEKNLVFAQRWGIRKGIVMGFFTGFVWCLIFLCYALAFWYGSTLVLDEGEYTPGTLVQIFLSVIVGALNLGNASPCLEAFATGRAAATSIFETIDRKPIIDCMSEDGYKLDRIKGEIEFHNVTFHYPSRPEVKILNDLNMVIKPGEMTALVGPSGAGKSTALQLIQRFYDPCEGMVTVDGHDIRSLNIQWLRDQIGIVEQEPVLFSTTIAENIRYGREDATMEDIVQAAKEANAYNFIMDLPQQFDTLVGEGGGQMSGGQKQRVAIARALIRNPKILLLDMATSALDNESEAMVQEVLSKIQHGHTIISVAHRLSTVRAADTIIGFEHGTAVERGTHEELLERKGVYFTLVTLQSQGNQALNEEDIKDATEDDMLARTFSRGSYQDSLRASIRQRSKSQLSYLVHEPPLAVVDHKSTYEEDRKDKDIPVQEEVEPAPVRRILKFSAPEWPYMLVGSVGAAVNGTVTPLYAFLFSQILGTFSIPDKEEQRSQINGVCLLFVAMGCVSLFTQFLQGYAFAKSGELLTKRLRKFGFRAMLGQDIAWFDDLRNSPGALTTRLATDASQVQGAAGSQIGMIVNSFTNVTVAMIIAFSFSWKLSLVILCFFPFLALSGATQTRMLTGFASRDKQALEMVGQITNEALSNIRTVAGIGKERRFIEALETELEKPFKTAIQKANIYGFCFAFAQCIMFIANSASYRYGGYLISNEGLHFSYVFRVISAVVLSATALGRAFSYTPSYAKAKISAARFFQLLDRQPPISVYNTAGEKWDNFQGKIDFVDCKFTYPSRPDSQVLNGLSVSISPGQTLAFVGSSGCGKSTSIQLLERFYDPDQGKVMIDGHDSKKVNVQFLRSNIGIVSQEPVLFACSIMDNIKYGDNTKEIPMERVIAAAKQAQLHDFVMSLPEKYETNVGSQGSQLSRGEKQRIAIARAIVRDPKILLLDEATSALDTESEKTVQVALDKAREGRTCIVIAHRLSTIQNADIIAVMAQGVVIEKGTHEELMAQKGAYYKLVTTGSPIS

[3] = Drug concentration at steady state in human at 2 g, po QD after 24 hrs; assay type: ADME, organism-based; conditions: in vivo, read-out: Css
[4] = AUC in human at 2 g, po QD after 24 hrs; assay type: ADME, organism-based; design: dose 2 g, time < 24 hr, route oral; conditions: in vivo
[5] = target: T1, ATP-binding cassette sub-family C member 4 (Homo sapiens, UniProt O15439); experiment: Inhibition of human MRP4 overexpressed in Sf9 cell membrane vesicles assessed as uptake of [3H]-estradiol-17beta-D-glucuronide in presence of ATP and GSH measured after 20 mins by membrane vesicle transport assay; assay type: ADME, cell-based
T1 sequence (O15439 whole entry): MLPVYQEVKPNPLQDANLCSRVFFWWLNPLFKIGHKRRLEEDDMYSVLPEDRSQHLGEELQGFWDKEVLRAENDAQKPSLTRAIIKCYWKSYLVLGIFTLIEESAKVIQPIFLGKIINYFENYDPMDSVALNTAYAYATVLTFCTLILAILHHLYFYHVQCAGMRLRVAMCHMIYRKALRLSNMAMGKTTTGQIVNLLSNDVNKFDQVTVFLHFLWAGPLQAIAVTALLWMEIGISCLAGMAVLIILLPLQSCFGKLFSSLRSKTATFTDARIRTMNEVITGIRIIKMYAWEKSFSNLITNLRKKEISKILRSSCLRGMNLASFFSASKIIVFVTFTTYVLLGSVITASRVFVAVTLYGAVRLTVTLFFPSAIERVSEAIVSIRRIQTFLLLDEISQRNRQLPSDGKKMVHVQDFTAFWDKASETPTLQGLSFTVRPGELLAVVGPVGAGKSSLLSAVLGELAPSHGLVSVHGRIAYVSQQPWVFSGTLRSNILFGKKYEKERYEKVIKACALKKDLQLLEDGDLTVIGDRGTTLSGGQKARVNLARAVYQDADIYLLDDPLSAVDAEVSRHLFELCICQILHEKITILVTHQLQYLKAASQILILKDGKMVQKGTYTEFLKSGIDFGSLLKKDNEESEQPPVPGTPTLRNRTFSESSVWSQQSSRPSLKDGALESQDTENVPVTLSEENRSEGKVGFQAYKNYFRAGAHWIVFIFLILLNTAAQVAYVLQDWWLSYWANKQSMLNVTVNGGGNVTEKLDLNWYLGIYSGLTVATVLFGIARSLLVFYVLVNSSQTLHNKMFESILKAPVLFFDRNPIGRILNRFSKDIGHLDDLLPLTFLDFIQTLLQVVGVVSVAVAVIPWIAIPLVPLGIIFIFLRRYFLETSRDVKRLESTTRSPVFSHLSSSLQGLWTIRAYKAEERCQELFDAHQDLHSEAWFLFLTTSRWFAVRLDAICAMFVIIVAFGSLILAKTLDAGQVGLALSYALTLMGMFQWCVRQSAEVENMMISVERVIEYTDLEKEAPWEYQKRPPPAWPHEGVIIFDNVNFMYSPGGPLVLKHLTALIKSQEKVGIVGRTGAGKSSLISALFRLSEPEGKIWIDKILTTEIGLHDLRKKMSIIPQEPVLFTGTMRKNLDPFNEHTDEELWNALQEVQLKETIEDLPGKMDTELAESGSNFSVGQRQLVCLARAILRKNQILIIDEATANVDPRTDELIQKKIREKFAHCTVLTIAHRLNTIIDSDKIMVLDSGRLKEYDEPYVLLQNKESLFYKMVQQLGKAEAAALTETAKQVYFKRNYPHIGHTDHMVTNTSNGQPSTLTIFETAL

[6] = target: ATP-binding cassette sub-family C member 2 (Homo sapiens, UniProt Q92887); experiment: Inhibition of human MRP2 overexpressed in Sf9 cell membrane vesicles assessed as uptake of [3H]-estradiol-17beta-D-glucuronide in presence of ATP and GSH measured after 20 mins by membrane vesicle transport assay
Sequence of ATP-binding cassette sub-family C member 2 (Q92887 whole entry): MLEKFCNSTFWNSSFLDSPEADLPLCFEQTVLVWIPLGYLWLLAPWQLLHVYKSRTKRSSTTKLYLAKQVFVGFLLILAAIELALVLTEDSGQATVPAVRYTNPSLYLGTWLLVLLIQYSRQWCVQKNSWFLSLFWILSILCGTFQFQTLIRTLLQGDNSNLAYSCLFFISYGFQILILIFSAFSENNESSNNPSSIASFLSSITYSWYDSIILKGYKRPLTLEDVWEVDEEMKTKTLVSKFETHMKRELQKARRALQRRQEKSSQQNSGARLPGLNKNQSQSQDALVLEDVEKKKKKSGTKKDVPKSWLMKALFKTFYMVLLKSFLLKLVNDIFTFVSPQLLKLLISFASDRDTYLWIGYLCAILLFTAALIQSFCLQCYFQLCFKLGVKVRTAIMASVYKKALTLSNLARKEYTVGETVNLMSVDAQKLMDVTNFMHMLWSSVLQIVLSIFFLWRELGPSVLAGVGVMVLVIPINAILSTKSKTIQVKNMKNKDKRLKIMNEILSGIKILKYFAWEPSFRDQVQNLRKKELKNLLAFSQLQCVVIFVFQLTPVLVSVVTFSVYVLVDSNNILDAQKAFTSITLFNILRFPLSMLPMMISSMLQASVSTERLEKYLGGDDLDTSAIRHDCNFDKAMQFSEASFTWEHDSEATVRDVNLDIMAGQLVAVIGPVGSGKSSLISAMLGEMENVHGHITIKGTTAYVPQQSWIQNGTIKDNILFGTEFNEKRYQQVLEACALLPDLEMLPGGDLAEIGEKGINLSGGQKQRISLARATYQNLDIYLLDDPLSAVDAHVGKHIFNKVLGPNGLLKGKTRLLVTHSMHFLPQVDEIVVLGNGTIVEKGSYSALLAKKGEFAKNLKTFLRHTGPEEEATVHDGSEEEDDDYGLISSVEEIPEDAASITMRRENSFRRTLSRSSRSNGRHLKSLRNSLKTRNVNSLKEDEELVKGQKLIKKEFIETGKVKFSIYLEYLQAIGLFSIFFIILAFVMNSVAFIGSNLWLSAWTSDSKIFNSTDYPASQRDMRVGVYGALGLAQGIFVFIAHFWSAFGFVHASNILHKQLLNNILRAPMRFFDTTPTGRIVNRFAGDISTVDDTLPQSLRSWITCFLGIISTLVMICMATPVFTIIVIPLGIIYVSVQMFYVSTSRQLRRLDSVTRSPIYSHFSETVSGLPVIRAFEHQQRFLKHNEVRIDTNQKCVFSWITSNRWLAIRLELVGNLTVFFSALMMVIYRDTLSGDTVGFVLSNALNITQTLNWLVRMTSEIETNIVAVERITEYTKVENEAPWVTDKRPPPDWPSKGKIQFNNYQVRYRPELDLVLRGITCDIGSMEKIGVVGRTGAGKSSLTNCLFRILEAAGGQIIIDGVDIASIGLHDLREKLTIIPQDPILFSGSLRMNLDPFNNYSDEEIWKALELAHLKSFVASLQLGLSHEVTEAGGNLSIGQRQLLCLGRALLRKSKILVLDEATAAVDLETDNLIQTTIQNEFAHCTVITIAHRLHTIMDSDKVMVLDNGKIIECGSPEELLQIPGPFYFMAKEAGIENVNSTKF

[7] = target: ATP-binding cassette sub-family C member 3 (Homo sapiens, UniProt O15438); experiment: Inhibition of human MRP3 overexpressed in Sf9 insect cell membrane vesicles assessed as uptake of [3H]-estradiol-17beta-D-glucuronide in presence of ATP and GSH measured after 10 mins by membrane vesicle transport assay; assay type: ADME, cell-based
Sequence of ATP-binding cassette sub-family C member 3 (O15438 whole entry): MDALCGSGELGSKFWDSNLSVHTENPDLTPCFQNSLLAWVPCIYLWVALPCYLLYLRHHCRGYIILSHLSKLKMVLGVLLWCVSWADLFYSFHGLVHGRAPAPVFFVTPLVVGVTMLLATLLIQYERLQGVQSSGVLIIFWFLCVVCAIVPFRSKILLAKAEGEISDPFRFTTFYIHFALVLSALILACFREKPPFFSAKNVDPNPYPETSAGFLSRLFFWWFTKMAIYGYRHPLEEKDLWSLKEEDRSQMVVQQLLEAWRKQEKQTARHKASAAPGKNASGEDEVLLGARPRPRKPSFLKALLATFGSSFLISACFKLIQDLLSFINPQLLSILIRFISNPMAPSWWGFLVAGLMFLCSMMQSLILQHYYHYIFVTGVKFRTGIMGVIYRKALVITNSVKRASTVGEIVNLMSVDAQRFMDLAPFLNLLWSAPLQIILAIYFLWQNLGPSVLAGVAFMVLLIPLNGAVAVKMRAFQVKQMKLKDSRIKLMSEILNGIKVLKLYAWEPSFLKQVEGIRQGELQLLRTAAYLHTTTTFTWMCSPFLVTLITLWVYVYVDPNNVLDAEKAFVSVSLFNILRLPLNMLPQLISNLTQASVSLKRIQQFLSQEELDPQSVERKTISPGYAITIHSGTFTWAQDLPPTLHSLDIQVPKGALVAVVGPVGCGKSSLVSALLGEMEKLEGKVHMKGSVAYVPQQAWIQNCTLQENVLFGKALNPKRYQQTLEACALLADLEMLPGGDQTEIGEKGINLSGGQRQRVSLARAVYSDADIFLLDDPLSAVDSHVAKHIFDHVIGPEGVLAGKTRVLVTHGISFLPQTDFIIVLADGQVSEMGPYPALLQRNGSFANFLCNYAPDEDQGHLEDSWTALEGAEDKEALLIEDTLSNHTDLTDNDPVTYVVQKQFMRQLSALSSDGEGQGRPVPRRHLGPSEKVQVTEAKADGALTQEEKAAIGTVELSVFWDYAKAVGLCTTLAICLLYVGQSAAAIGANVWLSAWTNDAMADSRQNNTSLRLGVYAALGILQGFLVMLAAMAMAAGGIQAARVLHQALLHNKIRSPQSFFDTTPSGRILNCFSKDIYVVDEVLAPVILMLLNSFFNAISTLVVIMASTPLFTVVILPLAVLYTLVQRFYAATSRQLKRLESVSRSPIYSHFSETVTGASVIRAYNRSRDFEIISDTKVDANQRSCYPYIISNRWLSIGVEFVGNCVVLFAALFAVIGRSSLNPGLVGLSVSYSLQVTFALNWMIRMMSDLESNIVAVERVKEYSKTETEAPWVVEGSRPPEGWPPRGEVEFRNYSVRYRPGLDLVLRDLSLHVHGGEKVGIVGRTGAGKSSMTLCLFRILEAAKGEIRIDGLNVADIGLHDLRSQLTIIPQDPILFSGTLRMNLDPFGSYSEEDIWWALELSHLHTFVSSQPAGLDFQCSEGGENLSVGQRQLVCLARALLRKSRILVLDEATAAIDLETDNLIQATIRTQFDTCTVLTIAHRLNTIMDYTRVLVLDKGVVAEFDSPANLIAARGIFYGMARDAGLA

[8] = Ratio of drug concentration at steady state in human at 400 to 800 mg, po QD used as formulation with ritonavir measured after 24 hrs to IC50 for human MRP3 overexpressed in Sf9 insect cells; assay type: ADME, organism-based; conditions: in vivo
[9] = Ratio of drug concentration at steady state in human at 400 to 800 mg, po QD used as formulation with ritonavir measured after 24 hrs to IC50 for human MRP4 overexpressed in Sf9 insect cells; assay type: ADME, organism-based; conditions: in vivo
[10] = Ratio of drug concentration at steady state in human at 400 to 800 mg, po QD used as formulation with ritonavir measured after 24 hrs to IC50 for human BSEP overexpressed in Sf9 insect cells; assay type: ADME, organism-based; conditions: in vivo
[11] = Drug concentration at steady state in human at 400 to 800 mg, po QD used as formulation with ritonavir measured after 24 hrs; assay type: ADME, organism-based; conditions: in vivo, read-out: Css
[12] = AUC in human at 400 to 800 mg, po QD used as formulation with ritonavir measured after 24 hrs; assay type: ADME, organism-based; conditions: in vivo
[13] = AUC in human at 1250 mg, po QD after 24 hrs; assay type: ADME, organism-based; design: time < 24 hr, dose 1250 mg, route oral; conditions: in vivo
[14] = Drug concentration at steady state in human at 1250 mg, po QD after 24 hrs; assay type: ADME, organism-based; conditions: in vivo, read-out: Css
[15] = Ratio of drug concentration at steady state in human at 1250 mg, po QD after 24 hrs to IC50 for human BSEP overexpressed in Sf9 insect cells; assay type: ADME, organism-based; conditions: in vivo
[16] = AUC in human at 125 to 500 mg, po QID after 6 hrs; assay type: ADME, organism-based; conditions: in vivo
[17] = Drug concentration at steady state in human at 125 to 500 mg, po QID after 6 hrs; assay type: ADME, organism-based; conditions: in vivo, read-out: Css
[18] = Ratio of drug concentration at steady state in human at 125 to 500 mg, po QID after 6 hrs to IC50 for human BSEP overexpressed in Sf9 insect cells; assay type: ADME, organism-based; conditions: in vivo
[19] = Drug concentration at steady state in human at 75 to 100 mg, po QID after 6 hrs; assay type: ADME, organism-based; conditions: in vivo, read-out: Css
[20] = Ratio of drug concentration at steady state in human at 75 to 100 mg, po QID after 6 hrs to IC50 for human BSEP overexpressed in Sf9 insect cells; assay type: ADME, organism-based; conditions: in vivo
[21] = AUC in human at 75 to 100 mg, po QID after 6 hrs; assay type: ADME, organism-based; conditions: in vivo
[22] = Ratio of drug concentration at steady state in human at 75 to 100 mg, po QID after 6 hrs to IC50 for human MRP4 overexpressed in Sf9 insect cells; assay type: ADME, organism-based; conditions: in vivo

Row | Compound | IC50 [2] | IC50 [5] | IC50 [6] | IC50 [7] | other results
1 | CCOC(=O)C(C)(C)Oc1ccc(Cl)cc1 [CLOFIBRATE] | 71 µM | > 133 µM | > 133 µM | > 133 µM | Ratio [1]: 0.381; concentration at 24 h [3]: 27.1 µM; AUC at 24 h [4]: 649 µM·h
2 | Cc1cccc(C)c1OCC(=O)N[C@@H](Cc1ccccc1)[C@@H](O)C[C@H](Cc1ccccc1)NC(=O)[C@H](C(C)C)N1CCCNC1=O [LOPINAVIR] |  | 47 µM | > 133 µM | 21 µM | Ratio [8]: 0.314; Ratio [9]: 0.14; Ratio [10]: 0.381; concentration at 24 h [11]: 6.6 µM; AUC at 24 h [12]: 158 µM·h
3 | CS(=O)(=O)CCNCc1ccc(-c2ccc3ncnc(Nc4ccc(OCc5cccc(F)c5)c(Cl)c4)c3c2)o1.Cc1ccc(S(=O)(=O)O)cc1 |  | > 133 µM | > 133 µM | > 133 µM | AUC at 24 h [13]: 62.3 µM·h; concentration at 24 h [14]: 2.6 µM; Ratio [15]: 0.4
4 | Cc1onc(-c2c(Cl)cccc2Cl)c1C(=O)N[C@@H]1C(=O)N2[C@@H]1SC(C)(C)[C@@H]2C(=O)O [DICLOXACILLIN] | 56.4 µM | > 133 µM | > 133 µM | > 133 µM | AUC at 6 h [16]: 168 µM·h; concentration at 6 h [17]: 28.1 µM; Ratio [18]: 0.498
5 | OCCN(CCO)c1nc(N2CCCCC2)c2nc(N(CCO)CCO)nc(N3CCCCC3)c2n1 [DIPYRIDAMOLE] | 4 µM | 8.3 µM | > 133 µM | > 133 µM | concentration at 6 h [19]: 1.14 µM; Ratio [20]: 0.303; AUC at 6 h [21]: 6.82 µM·h; Ratio [22]: 0.137
